Each structure is given as a SMILES string. In brackets after ≈: the same amount, converted by molar mass.

These results are taken from US4940702A, “Cephem compounds” (Beecham Group p.l.c., priority 1985, dated 1990).

What all share (experiment): Minimum Inhibitory Concentration (MIC) by serial dilution in nutrient agar
Holding throughout (assay type): cell-based

One assay concerns K. pneumoniae T767. The following applies: Klebsiella pneumoniae, 10^4 colony forming units, overnight at 37° C. On the procedure:
(§1) Minimum Inhibitory Concentration (MIC) values of compounds of the invention against E coli DC 0, K pneumoniae T767, and P aeruginosa NCTC 10662 were determined by serial dilution in a nutrient agar (from Oxoid Ltd., Basingstoke, England). The plates were inoculated with 10^4 colony forming units and incubated overnight at 37° C. The MIC values recorded in Table 1 were the lowest concentration of antibiotic to inhibit growth. Comparative data for 7α-formamido-3-(pyridiniummethyl)-7β-(thien-2-yl-acetamido)-ceph-3-em-4-carboxylate (Compound A), disclosed in European Patent Application No. 82303821.1 (Publication Number 0 071 395), are also given.

For another assay, the system named is E. coli DC 0. The settings on record: Escherichia coli, DC0, 10^4 colony forming units, overnight at 37° C. On the procedure: as §1
For another assay, the system named is P. aeruginosa NCTC 10662. The following applies: Pseudomonas aeruginosa, NCTC10662, 10^4 colony forming units, overnight at 37° C. The protocol:
as §1

With `CCN1CCN(C(=O)N[C@@H](C(=O)N[C@]2(NC=O)C(=O)N3C(C(=O)[O-])=C(C[n+]4ccc(C5CC5)cc4)CS[C@@H]32)c2ccccc2)C(=O)C1=O` [Example 29, 3-(4-Cyclopropylpyridinium)methyl-7β-[D-2-[(4-ethyl-2,3-dioxopiperazin-1-yl)carbonylamino]-2-phenylacetamido]-7α-formamido-ceph-3-em-4-carboxylate], the results for the minimum inhibitory concentration (MIC) in the assay on K. pneumoniae T767, with E. coli DC 0 and against P. aeruginosa NCTC 10662 were 1 µg/mL (≈ 1.48 µM), 0.5 µg/mL (≈ 0.74 µM) and 8 µg/mL (≈ 11.8 µM), respectively.

On to `CCN1CCN(C(=O)NC(C(=O)NC2(NC=O)C(=O)N3C(C(=O)[O-])=C(C[n+]4cccc5c4CCC5)CSC32)c2ccc(O)c(O)c2)C(=O)C1=O` [Example 3, 3-(2,3-Cyclopentenopyridinium)methyl-7β-[D-2-(3,4-dihydroxyphenyl)-2-[(4-ethyl-2,3-dioxopiperazin-1-yl)carbonylamino]acetamido]-7α-formamido-ceph-3-em-4-carboxylate], for which the MIC in the assay on K. pneumoniae T767 was determined as 0.12 µg/mL (≈ 0.17 µM); against E. coli DC 0, 0.12 µg/mL (≈ 0.17 µM); against P. aeruginosa NCTC 10662 it was 1 µg/mL (≈ 1.41 µM).

Regarding `O=CN[C@@]1(NC(=O)Cc2cccs2)C(=O)N2C(C(=O)[O-])=C(C[n+]3ccccc3)CS[C@@H]21` [Compound A, 7α-formamido-3-(pyridiniummethyl)-7β-(thien-2-yl-acetamido)-ceph-3-em-4-carboxylate, reference compound], the values for the minimal inhibitory concentration (MIC) in the assay on K. pneumoniae T767, against E. coli DC 0 and in the assay on P. aeruginosa NCTC 10662 were 25 µg/mL (≈ 54.5 µM), 25 µg/mL (≈ 54.5 µM) and 50 µg/mL (≈ 109 µM), respectively.

Usually MIC stands for the smallest concentration in the dilution series that meets the test's criterion for growth inhibition. A high value points to a less susceptible organism.
